Peptide text beside a SMILES is read from it. * marks the point of attachment. NHtBu = CC(C)(C)N*
In the case of O=NN1CCCCC1, the logP is reported as 0.36. COC(=O)CCCCCC(=O)OC showed a logP of 1.38. Work on Cn1c(N)nc2cc(C#N)ccc21 yielded a logP of 1.11. With CC1CN1C1=CC(=O)c2ccccc2C1=O (centres undefined) the logP was 2.17. Work on COC(=O)c1ccccc1N=NN(C)C yielded a logP of 2.51. With COc1c(O)c(OC)c(Cl)c(Cl)c1Cl the logP was 3.74. With O=C(Cn1cnc([N+](=O)[O-])n1)N1CCOCC1 the logP was -0.96. In the case of c1ccsc1, the logP is reported as 1.81. NC(C(=O)O)c1ccccc1 (centres undefined) gave a logP of -1.7. Work on CN1C(=O)SC(=Cc2ccc([N+](=O)[O-])o2)C1=O yielded a logP of 1.78. With CCOP(=S)(OCC)SCSCC the logP was 3.56. Work on CC(=O)N[C@@H](Cc1ccc(O)cc1)C(=O)N[C@@H](CC(C)C)C(N)=O (Ac-Tyr-Leu-NH2) yielded a logP of 0.32. Work on CN(C)O yielded a logP of -1.15. Work on CCOCC(O)Cn1cnc([N+](=O)[O-])n1 (centres undefined) yielded a logP of -0.07. C=CC=C showed a logP of 1.99. For COc1ccccc1NCC(C)=O, the logP was 1.49. NS(=O)(=O)c1ccc(SCCO)s1 showed a logP of 0.38. Work on CC(C)C(=O)CC(=O)C(C)C yielded a logP of 2.22. Cc1cccc(OCC(=O)NNC(C)C)c1 gave a logP of 1.77. Molecule NC(=O)CCc1ccccn1 has a logP of -0.27. In the case of O=C(O)C(CO)c1ccccc1 (centres undefined), the logP is reported as 0.77. Molecule CC(=S)Nc1ccccc1 has a logP of 1.71. With CC(=O)NCC(=O)N[C@@H](CC(C)C)C(N)=O the logP was -0.78. With COc1ccc2[nH]ccc2c1 the logP was 2.06. With O=[N+]([O-])c1ccc(OCC(O)CNCC(O)COc2ccccc2)cc1 (centres undefined) the logP was 2.62. Cc1ccsc1 showed a logP of 2.34. Work on O=Cc1ccc([N+](=O)[O-])cc1 yielded a logP of 1.56. Work on NC(=O)c1ccc2[nH]ccc2c1 yielded a logP of 0.87. NC[C@H](O)c1ccc(O)c(O)c1 gave a logP of -1.24. Work on O=[N+]([O-])c1cccc2ccccc12 yielded a logP of 3.19. With Nc1ccc(-c2ccc(N)c(Cl)c2)cc1Cl the logP was 3.51. For S=C(NN=Cc1ccco1)Nc1ccccc1, the logP was 3.13. Work on COc1ccc2c(c1)C13CCN4CC5=CCOC6CC(=O)N2C1C6C5CC43 (centres undefined) yielded a logP of 1.85. COc1cc(C(O)CO)ccc1O (centres undefined) showed a logP of -0.58. Molecule CNC1=CC(=O)C(NC)=CC1=O has a logP of 0.34. In the case of CN(C)C#N, the logP is reported as -0.15. Work on COc1ccc(OC)c(CC(C)N)c1 (centres undefined) yielded a logP of 1.72. NCCCCC(=O)O gave a logP of -2.63. Work on CC(=O)NC(C)C(=O)NCC(=O)NC(C)C(=O)NC(C)(C)C (stereo not drawn) (Ac-Ala-Gly-Ala-NHtBu; configuration not given here) yielded a logP of -0.6. With CCCc1ccc([N+](=O)[O-])cc1 the logP was 3.45. With CCOC(=O)C(=Cc1ccc(O)c(OC)c1)C(=O)OCC the logP was 2.89. Molecule Nc1cccc2nc3ccccc3cc12 has a logP of 2.47. With O=C1C(F)=C(N2CC2)C(=O)C(N2CC2)=C1N1CC1 the logP was 0.14. In the case of CC(=O)Nc1c(I)c(C(=O)N[C@H]2C(O)O[C@H](CO)[C@@H](O)[C@@H]2O)c(I)c(N(C)C(C)=O)c1I (some centres undefined), the logP is reported as -1.89. Molecule CON(C)C(=O)Nc1ccc(OCCc2ccc(C)cc2)cc1 has a logP of 3.81. Molecule O=Cc1ccc(OCC(=O)O)cc1 has a logP of 0.79. CCC(=O)OCC(=O)[C@@]1(OC(=O)CC)[C@@H](C)C[C@H]2[C@@H]3CCC4=CC(=O)C=C[C@]4(C)[C@@]3(F)[C@@H](O)C[C@@]21C gave a logP of 4.07. Work on COCCOC(=O)c1ccccc1 yielded a logP of 1.78. With CC(=O)Nc1cccc(NC(C)=O)c1 the logP was 0.5. For NCCc1c[nH]c2ccccc12, the logP was 1.55. COCCCc1ccccc1 gave a logP of 2.7. Molecule CC(=O)N[C@@H](C)C(=O)NCC(=O)N[C@@H](Cc1ccccc1)C(N)=O (Ac-Ala-Gly-Phe-NH2) has a logP of -0.71. In the case of O=C1C=C(Cl)C(=O)c2ccccc21, the logP is reported as 2.29. In the case of O=C1CC(Sc2ccccc2)N1 (centres undefined), the logP is reported as 1.58. Molecule c1ccc2c(c1)Cc1ccccc1-2 has a logP of 4.18. For CC(C)c1ccc(OC(=O)c2ccc(N)cc2O)cc1, the logP was 4.12. For CC(CO)NC1=C(N2CC2)C(=O)C(NC(C)CO)=C(N2CC2)C1=O (centres undefined), the logP was -0.37. For CN(C)CC(CN1c2ccccc2Sc2ccccc21)N(C)C (centres undefined), the logP was 4.76. In the case of CN(C)CCNC(=O)c1ccccc1, the logP is reported as 1.1. NCCCCc1cccnc1 gave a logP of 0.88. With O=[N+]([O-])c1cccc2c1ccc[n+]2[O-] the logP was 0.49. CC(C)c1ccc(NC(=O)N(C)C)cc1 showed a logP of 2.87. In the case of Nc1nc2nc[nH]c2c(=S)[nH]1, the logP is reported as -0.07. NC(=O)N/N=C/c1ccc([N+](=O)[O-])o1 showed a logP of 0.23. COc1ccc(CN(C)N=O)cc1 gave a logP of 1.62. O=C(O)c1cc(Cl)cc(Cl)c1 showed a logP of 3. In the case of CCC(=O)C1(c2cccc(OC(=O)CC(C)(C)C)c2)CCN(C)CC1, the logP is reported as 3.17. CNCC(O)c1ccc(O)cc1 (centres undefined) showed a logP of -0.45. Nc1ccccc1F gave a logP of 1.26. With CC(=O)N[C@@H](Cc1ccccc1)C(=O)NCC(=O)N[C@@H](CC(C)C)C(N)=O the logP was 0.6. Work on CO[C@H]1[C@@H](O)C[C@H](O[C@H]2[C@@H](O)C[C@H](O[C@H]3[C@@H](O)C[C@H](O[C@H]4CC[C@@]5(C)[C@H](CC[C@@H]6[C@@H]5C[C@@H](O)[C@]5(C)[C@@H](C7=CC(=O)OC7)CC[C@]65O)C4)O[C@@H]3C)O[C@@H]2C)O[C@@H]1C yielded a logP of 1.8. Molecule CN(C)C(=O)OCc1ccc(Cl)cc1 has a logP of 2.93. Work on CCCCF yielded a logP of 2.58. Work on COC(=O)Nc1cccc(Cl)c1 yielded a logP of 2.58. For CCCC(=O)O[C@H]1[C@H](C)O[C@@H](O[C@H]2[C@H](N(C)C)[C@@H](O)[C@H](O[C@H]3[C@@H](CC=O)C[C@@H](C)[C@@H](O)C=CC=CC[C@@H](C)OC(=O)C[C@@H](O)[C@@H]3OC)O[C@@H]2C)C[C@@]1(C)OC(=O)CC, the logP was 3.08. Molecule CC(=O)Nc1ccc(O)c(C(C)(C)C)c1 has a logP of 2.36. Molecule CC(=O)N[C@@H](Cc1c[nH]c2ccccc12)C(=O)N[C@@H](C)C(=O)N[C@H](C(N)=O)C(C)C (Ac-Trp-Ala-Val-NH2) has a logP of 0.36. For CC(=O)Nc1cccs1, the logP was 1.1. With NC(=S)c1ccccn1 the logP was 1.24.

Reference: the OPERA property sets (Mansouri et al. 2018)
